Test results: patent US20210145768A1, “MODULATING IMMUNE RESPONSE VIA TARGETING OF OLFACTORY RECEPTOR ACTIVITY” (La Jolla Institute for Allergy and Immunology, priority 2018, published 2021)

Assays:
Olfr2 [1] = assay: Olfr2, Rtp1 and Rtp2 mRNA expression (qPCR) in explanted aortas; format: cell-based, mouse
Source text: Next, Olfr2 expression in aortas harvested from western-type diet (WD)-fed male mice (n=5) was investigated^18. Briefly, whole aortas were harvested from Apoe^−/− mice fed western-like diet (WD) for 2 weeks and treated as described above. Relative expression of Olfr2 quantified by real time PCR analysis of Olfr2 expression normalized to expression of Gapdh and untreated control.
In addition, Rtp1 and Rtp2 expression in aortas harvested from Apoe−/− mice was investigated. Briefly, explanted aortas of Apoe−/− mice treated for 12h with Oct (10 μM) and/or lipopolysaccharide (LPS, 500 ng/mL). Rtp1 and Rtp2 expression was assessed by qPCR as described above. N=3 independent experiments (relative expression calculated by 2^−ΔΔCt method). Data are presented as means±SEM. *p<0.05, **p<0.01, ***p<0.005, ****p<0.001. p calculated by One-Way ANOVA test, Tukey's multiple comparisons test.
BMDMs and hMDMs were incubated in culture media for 12 h at 37° C. and 5% CO2 with Oct, (10 μM), LPS (500 ng/mL) alone or combined with Oct (LPS+Oct) and DMSO (0.1%) as a control and lysed with Qiazol (500 μL; Qiagen) Similarly, whole aortas incubated as previously described were transferred into Qiazol (500 μl; Qiagen) and digested with gentleMACS™ Dissociator (Miltenyi).
Total RNA was quantified using a nanodrop spectrophotometer (Peqlab) and 500 ng were reverse transcribed into cDNA using Omniscript reverse transcriptase (Qiagen). Real time PCR reactions were performed according to the RT^2 SYBR green gene expression assay protocol (Qiagen). RT2 SYBR Green qPCR master mix and premade RT^2 qPCR Primer Assays for mouse Olfr2, Rtp1, Rtp2, Ccl2, Ccl4, Tnf, Nos2 and Gapdh were used. Similarly, real time PCR analysis of hMDMs samples was performed following the RT^2 SYBR green gene expression assay protocol (Qiagen), applying RT^2 SYBR Green qPCR master mix and premade RT^2 qPCR Primer Assays for human OR6A2, TNF, IL-6, NOS2 and GAPDH. The results were calculated applying the 2^−ΔΔCT method^32 using Gapdh/GAPDH as housekeeping gene.

[2] = Plasma lipids, body weight and hematological parameters in treated Apoe−/− mice; format: in vivo, mouse
Method: Male Apoe^−/− mice (9 to 10 wks old) were fed WD for 4 weeks. Oct or Cit were diluted in sterile phosphate buffered saline (PBS) (Gibco) at a final concentration of 10 μg/g. 100 μl were injected intraperitoneally (i.p.) every 3 days for 4 weeks (12 injections total) while maintaining WD administration. PBS+0.1% DMSO (Sigma Aldrich) was injected as a vehicle control following the same protocol. Mice were sacrificed, perfused with PBS implemented with 2% heparin (Fresenius Kabi USA, LLC) and aortas removed for en face atherosclerotic lesion assessment. Mouse whole blood (heart puncture) was collected in EDTA tubes. Leukocyte blood counts were determined with HemaVet 950 (Drew Scientific). Plasma was collected from blood centrifuged at 3000 g for 15 min at 4° C. and stored at −80° C. until further analysis. Lipid analysis of collected plasma was performed by IDEXX BioResearch.

Olfr2 [3] = target: T1, Olfr2 (Mus musculus, UniProt Q9QWU6); assay: Calcium signalling (Fluo-4, flow cytometry) in vascular macrophages; format: cell-based; set-up: Olfr2 expression was confirmed at the protein level on F4/80^+ vascular macrophages; from tissue; host or cells: explanted whole aortas, digested aortic cell suspensions (F4/80+ vascular macrophages) and blood monocytes of Apoe-/- C57BL/6J mice; living Apoe-/- mice for the in vivo study
T1 sequence (Q9QWU6 1-327): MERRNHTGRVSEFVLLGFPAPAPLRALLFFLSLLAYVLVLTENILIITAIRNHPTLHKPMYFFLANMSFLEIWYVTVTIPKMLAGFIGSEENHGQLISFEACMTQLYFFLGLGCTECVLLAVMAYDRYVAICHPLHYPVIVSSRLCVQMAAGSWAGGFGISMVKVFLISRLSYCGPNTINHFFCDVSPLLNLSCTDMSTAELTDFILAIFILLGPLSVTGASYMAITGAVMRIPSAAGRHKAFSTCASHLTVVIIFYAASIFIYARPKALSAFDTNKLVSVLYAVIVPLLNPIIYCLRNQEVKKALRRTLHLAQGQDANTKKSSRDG
Method: The role of Olfr2 ligation on inflammatory responses was investigated by measuring intracellular free calcium (Can in vascular macrophages. Briefly, mouse aortic cell suspensions were loaded with 2 μM Fluo-4 at 37° C. for 30 min, then washed and incubated with cell surface markers at RT for 20 min CD45^+, live, dump channel^− (TCRb^−, CD19^−), F4/80^+ macrophages were analyzed by flow cytometry. Olfr2 agonist Oct (10 μM), and antagonist Cit (100 μM) alone or combined (Oct+Cit) were added 60 seconds (s) after the acquisition started. DMSO (0.1%) was injected as a control (Ctrl).
Aortic cell suspensions obtained as previously described^18 were pre-incubated with extracellular markers for vascular macrophages including CD45-PerCP, TCRβ/CD4-APCCy7 (Dump Channel), F4/80-BV421 and LD Yellow fixable dye (Invitrogen) for 20 min in Fc block solution at RT in the dark. Aortic cell suspensions were than washed twice and loaded with 2 μM of Fluo4 dye (Thermo Fischer Scientific) for 30 min at 37° C.
Subsequently, cells were washed and resuspended in 37° C. warm HBSS buffer containing Ca^2+ and Mg^2+ and acquired with the LSRII flow cytometer. After 60 seconds, Oct (10 μM), Cit (100 μM) or vehicle (DMSO 0.1%) was added and acquisition continued for additional 140 seconds. Data was acquired with FACSDiva software (BD Biosciences) and analyzed with FlowJo software (Treestar Inc). Mean fluorescence intensity of Fluo4 was integrated over 25 seconds form the start of the acquisition (tot. 8 intervals).

CC(C)=CCCC(C)=CC=O [citral]
Olfr2 mRNA expression (Olfr2 [1]; citral, data not shown): did not affect
other parameters (body weight, hematological, lipids) ([2]; citral-treated Apoe−/− mice): no effect
octanal-induced calcium flux in vascular macrophages (Olfr2 [3]; citral 100 μM + octanal 10 μM): completely blocked

CCCCCCCC=O [octanal]
aortic Olfr2, Rtp1 and Rtp2 mRNA (Olfr2 [1]; LPS 500 ng/mL + octanal 10 μM ex vivo, 12 h): significantly enhanced
Olfr2 expression (qRT-PCR) (Olfr2 [1]; LPS + octanal): further increased
Olfr2 expression (qRT-PCR) (Olfr2 [1]; octanal alone): no effect
total cholesterol, LDL cholesterol, HDL cholesterol or triglycerides ([2]; octanal-treated Apoe−/− mice): no effect
calcium signal in other immune cells (TCRb+, CD19+) (Olfr2 [3]; octanal 10 μM, citral 100 μM alone or combined): No calcium signal
intracellular free calcium (Fluo-4 MFI) in F4/80+ vascular macrophages (Olfr2 [3]; octanal 10 μM, at 100 and 125 s after injection): highly significant increase
